Assay results: PMC1989143, “An Expanded Set of Amino Acid Analogs for the Ribosomal Translation of Unnatural Peptides” (PLoS ONE, 2007)

Experiments:
[1] = molecular target: T1, ThrRS (Escherichia coli, UniProt P0A8M3); assay: tRNA aminoacylation competition assay, MALDI-TOF MS; type: biochemical; details: 50000 µM; 50 µM natural Thr (Table 3), 6 mM ATP, 17 mM MgCl2, E. coli total tRNA, pH 7.4, 37 °C; competitive
T1 construct: gene thrS; His-tagged, recombinant, purified
Description: tRNA aminoacylation competition assay, MALDI-TOF MS on ThrRS

[2] = molecular target: T2, PheRS (Escherichia coli, UniProt P08312); assay: as above; type: biochemical; details: 5000 µM; 5 µM natural Phe (Table 3), 6 mM ATP, 17 mM MgCl2, E. coli total tRNA, pH 7.4, 37 °C; competitive
T2 construct: gene pheS; His-tagged, recombinant, purified; wild-type enzyme; with Phenylalanine--tRNA ligase beta subunit
Description: tRNA aminoacylation competition assay, MALDI-TOF MS on PheRS

T1 sequence (P0A8M3 whole entry): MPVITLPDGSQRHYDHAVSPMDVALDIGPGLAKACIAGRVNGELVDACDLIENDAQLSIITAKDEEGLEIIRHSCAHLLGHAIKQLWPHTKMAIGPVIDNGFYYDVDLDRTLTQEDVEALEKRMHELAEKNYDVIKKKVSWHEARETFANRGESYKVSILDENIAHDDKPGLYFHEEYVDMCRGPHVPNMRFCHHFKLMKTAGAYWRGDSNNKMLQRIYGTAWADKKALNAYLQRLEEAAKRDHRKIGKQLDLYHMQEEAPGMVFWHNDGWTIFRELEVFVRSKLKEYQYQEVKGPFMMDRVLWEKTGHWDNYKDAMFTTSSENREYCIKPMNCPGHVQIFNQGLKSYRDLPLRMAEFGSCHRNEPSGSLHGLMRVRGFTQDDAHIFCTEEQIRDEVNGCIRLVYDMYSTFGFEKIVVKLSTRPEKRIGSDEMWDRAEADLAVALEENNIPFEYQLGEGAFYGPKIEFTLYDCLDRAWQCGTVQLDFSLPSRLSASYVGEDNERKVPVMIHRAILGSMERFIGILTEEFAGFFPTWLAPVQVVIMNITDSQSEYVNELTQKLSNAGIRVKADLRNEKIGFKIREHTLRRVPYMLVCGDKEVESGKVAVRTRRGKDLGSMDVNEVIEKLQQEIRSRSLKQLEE
T2 sequence (P08312 whole entry): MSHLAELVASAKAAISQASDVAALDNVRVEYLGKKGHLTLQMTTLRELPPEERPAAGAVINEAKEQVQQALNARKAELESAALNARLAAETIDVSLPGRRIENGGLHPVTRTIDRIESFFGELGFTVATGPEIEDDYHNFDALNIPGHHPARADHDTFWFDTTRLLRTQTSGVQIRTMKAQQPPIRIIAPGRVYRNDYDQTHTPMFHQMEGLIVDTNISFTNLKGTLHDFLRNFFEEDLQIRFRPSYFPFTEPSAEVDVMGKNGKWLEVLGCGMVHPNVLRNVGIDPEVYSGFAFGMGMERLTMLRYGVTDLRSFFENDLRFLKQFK
T2 sequence (P07395 whole entry partner): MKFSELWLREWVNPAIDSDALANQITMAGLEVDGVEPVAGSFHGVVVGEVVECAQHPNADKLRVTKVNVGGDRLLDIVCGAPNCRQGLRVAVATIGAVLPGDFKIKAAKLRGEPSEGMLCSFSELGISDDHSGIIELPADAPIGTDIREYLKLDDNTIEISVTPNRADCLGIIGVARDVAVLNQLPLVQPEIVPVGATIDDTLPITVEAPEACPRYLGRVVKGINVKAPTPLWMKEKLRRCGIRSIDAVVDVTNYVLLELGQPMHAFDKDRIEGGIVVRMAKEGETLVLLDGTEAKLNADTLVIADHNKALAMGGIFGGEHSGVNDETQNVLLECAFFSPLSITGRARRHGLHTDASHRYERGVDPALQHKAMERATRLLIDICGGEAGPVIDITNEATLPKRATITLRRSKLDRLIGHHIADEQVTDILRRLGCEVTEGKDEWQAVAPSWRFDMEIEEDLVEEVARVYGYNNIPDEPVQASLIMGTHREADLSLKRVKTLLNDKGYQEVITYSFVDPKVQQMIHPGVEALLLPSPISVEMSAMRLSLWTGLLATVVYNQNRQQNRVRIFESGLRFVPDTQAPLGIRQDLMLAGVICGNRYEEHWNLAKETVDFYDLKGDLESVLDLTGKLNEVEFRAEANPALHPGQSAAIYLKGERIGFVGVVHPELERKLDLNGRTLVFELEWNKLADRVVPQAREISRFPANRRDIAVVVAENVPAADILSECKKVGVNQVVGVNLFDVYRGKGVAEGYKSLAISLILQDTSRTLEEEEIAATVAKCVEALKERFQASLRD

% Inhibition ^b [1] | SMILES | % Inhibition ^b [2]
92 (range 2.9) % | CCC(O)C(N)C(=O)O (racemic) [P5, DL-β-hydroxy norvaline] | 
 | NC(Cc1ccccc1F)C(=O)O (centres unmarked) [A5, 2-fluoro Phe] | 78 (range 2.1) %
